The values that follow come from patent US10758614B2, “Combination therapies targeting tumor-associated stroma or tumor cells and topoisomerase” (BIOMED VALLEY DISCOVERIES, INC., priority 2014, dated 2020).

One experiment has as its system MDA-MB231 tumors. As to conditions: 79-day study, endpoint 1500 mm^3; logrank.
The next experiment concerns H460 cells. The experiment can be described thus: M830 in the H460 non-small cell lung carcinoma xenograft model. Type of experiment: in vivo, athymic nude mice. Particulars: M830 with combination partner Paclitaxel. How it is done: Animals were monitored for regression responses.
Cultured H460 cells were harvested during exponential growth and resuspended in phosphate buffered saline at a concentration of 1×10^8 cells/mL. 1.0×10^7 tumor cells were injected subcutaneously into the flank of athymic nude mice.

Description for MDA-MB231 tumors: Unless otherwise noted, female immunodeficient athymic nude mice (Crl:NU(Ncr)-Foxn/nu, Charles River) were used at nine weeks old with a body weight (BW) range of about 15 to about 30 grams on Day 1 of the study.
On the day of tumor implant, each test mouse was injected with cultured tumor cells, and tumor growth was monitored as the average size approached the target range. Tumors were measured in two dimensions using calipers, and volume was calculated using the formula: Tumor Volume (mm^3)=(w^2×l)/2 where w=width and l=length, in mm, of the tumor. Tumor weight was estimated with the assumption that 1 mg is equivalent to 1 mm^3 of tumor volume. For all therapeutic studies, mice were sorted into groups containing the same average size tumors prior to initiation of therapy. Controls
One group in each cohort received 1% vehicle IP three times per week to end, and served as the control group for calculation of % tumor growth delay (TGD).
Tumors were measured using calipers twice per week, and each animal was euthanized when its tumor reached the pre-determined tumor volume endpoint described for each experiment (usually 2000 mm^3) or on the final day, whichever came first. […] The time to endpoint (TTE) for analysis was calculated for each mouse by the following equation: TTE=[ log10(endpoint volume)−b]/m where TTE is expressed in days, endpoint volume is expressed in mm^3, b is the intercept, and m is the slope of the line obtained by linear regression of a log-transformed tumor growth data set. […] The calculated TTE was usually less than the TP date, the day on which the animal was euthanized for determination of tumor size. […]
Treatment outcome was evaluated from TGD, defined as the increase in the median TTE in a treatment group compared to the control group: TGD=T−C, expressed in days, or as a percentage of the median TTE of the control group: % TGD=[(T−C)/C]×100 where: […]
Animals were weighed daily on Days 1-5, then twice per week until completion of the study. […] Group mean BW loss also was monitored as per protocol. […]

Turning to `COc1cccc2c1C(=O)c1c(O)c3c(c(O)c1C2=O)C[C@@](O)(C(=O)CO)C[C@@H]3O[C@H]1C[C@H](N)[C@H](O)[C@H](C)O1` [Doxorubicin, doxorubicin], the “survival compared to controls” value with MDA-MB231 tumors is “statistically significant survival extensions”.

Consider `CC(=O)O[C@H]1C(=O)[C@@]2(C)[C@H]([C@H](OC(=O)c3ccccc3)[C@]3(O)C[C@H](OC(=O)[C@H](O)[C@@H](NC(=O)c4ccccc4)c4ccccc4)C(C)=C1C3(C)C)[C@]1(OC(C)=O)CO[C@@H]1C[C@@H]2O` [paclitaxel], for which the “survival compared to controls” value with MDA-MB231 tumors is “statistically significant survival extensions”.

B1: M830: TEM8 monoclonal antibody (hIgG1), VH SEQ ID NO:5, VL SEQ ID NO:6 (antibody, V domains shown)
VH: EVQLVESGGGVVQPGRSVRLSCAASGFTFSTYTMHWVRQAPGKGLEWVAIISNDGSNKYYADPVRGRFTISRDNSKNTLYLQMNSLRAEDTAVYYCVRGSSWYRGNWFDPWGQGTLVTVSS
VL: DIQMTQSPSSLSASVGDRVTIACRASQTISRYLNWYQQKPGKAPKLLIYAASSLQSGVSSRFSGSGSGTEFTLTISSLQPEDFATYFCQQTYSPPITFGQGTRLEIKR
modifications: TEM830 mAb VH; TEM830 mAb VL
Regarding B1, the “regression (at Day 21)” value with H460 cells is reported as “(−61% regression)”. In addition, the “survival compared to controls” value in the experiment with MDA-MB231 tumors was “did not produce statistically significant survival benefit”.
